Measured values taken from patent US11766425B2, “Antibiotic combination therapies” (BIOVERSYS AG, priority 2019, dated 2023).
Like-named read-outs stand apart in the source and are kept apart here.

What was measured:
Type in all cases: cell-based, Acinetobacter baumannii
[1] = tested on: panel of MDR clinical isolates of A. baumannii
Experimental: (§1) Checkerboards were performed according to the CLSI parameters used for microbroth dilution MIC5. CA-MHB, iron-depleted CA-MHB (ID-CA-MHB) or RPMI supplemented with 10% FCS medium were used as specified and ID-CA-MHB was prepared according to CLSI guidelines. […] FICI is calculated as follows: […]

A. baumannii IHMA690517 = experiment: broth microdilution checkerboard MIC/synergy; settings: strain IHMA690517
Experimental: as §1

A. baumannii UNT087-1 = experiment: broth microdilution checkerboard MIC/synergy
Experimental: as §1

A. baumannii 401046-18 = experiment: broth microdilution checkerboard MIC/synergy; settings: for MIC: Acinetobacter baumannii, 40104618, strain 401046-18, read-out: MICs alone
Experimental: as §1

A. baumannii IHMA919656 = experiment: broth microdilution checkerboard MIC/synergy; settings: strain IHMA919656
Experimental: as §1

A. baumannii IHMA867231 = experiment: broth microdilution checkerboard MIC/synergy; settings: for MIC: Acinetobacter baumannii, IHMA867231, strain IHMA867231, read-out: MICs alone
Experimental: as §1

A. baumannii ACC00535 = experiment: broth microdilution checkerboard MIC/synergy; settings: strain ACC00535; rifabutin/SPR741 in combination
Experimental: as §1

A. baumannii UNT091-1 = experiment: broth microdilution checkerboard MIC/synergy
Experimental: as §1

A. baumannii 402292-17 = experiment: broth microdilution checkerboard MIC/synergy; settings: for MIC: Acinetobacter baumannii, 40229217, strain 402292-17, read-out: MICs alone
Experimental: as §1

A. baumannii IHMA863866 = experiment: broth microdilution checkerboard MIC/synergy; settings: strain IHMA863866
Experimental: as §1

A. baumannii UNT239-1 = experiment: broth microdilution checkerboard MIC/synergy; settings: strain UNT239-1
Experimental: as §1

A. baumannii 402608-17 = experiment: broth microdilution checkerboard MIC/synergy; settings: for MIC: Acinetobacter baumannii, 40260817, strain 402608-17, read-out: MICs alone
Experimental: as §1

A. baumannii 401255-18 = experiment: broth microdilution checkerboard MIC/synergy; settings: for MIC: Acinetobacter baumannii, 40125518, strain 401255-18, read-out: MICs alone
Experimental: as §1

A. baumannii HUMC1 = experiment: broth microdilution checkerboard MIC/synergy; settings: strain HUMC1
Experimental: as §1

A. baumannii IHMA1013816 = experiment: broth microdilution checkerboard MIC/synergy; settings: strain IHMA1013816
Experimental: as §1

A. baumannii UNT191-1 = experiment: broth microdilution checkerboard MIC/synergy
Experimental: as §1

A. baumannii UNT238-1 = experiment: broth microdilution checkerboard MIC/synergy; settings: strain UNT238-1
Experimental: as §1

[2] = tested on: A. baumannii LAC-4 strain; experiment: broth microdilution checkerboard MIC/synergy; settings: strain LAC-4
Experimental: as §1
The checkerboards were performed in CA-MHB or ID-CA-MHB for cefiderocol.

[3] = rifabutin/SPR741 in combination
[4] = rifabutin/cefiderocol in combination
[5] = rifabutin/colistin in combination, CA-MHB
[6] = antibiotic alone, rifabutin/colistin checkerboard, CA-MHB
[7] = rifabutin alone, rifabutin/SPR741 checkerboard
[8] = antibiotic alone, rifabutin/cefiderocol checkerboard
[9] = rifabutin/cefiderocol in combination, ID-CA-MHB

CO[C@H]1/C=C/O[C@@]2(C)Oc3c(C)c(O)c4c(c3C2=O)C2=NC3(CCN(CC(C)C)CC3)NC2=C(NC(=O)/C(C)=C\C=C\[C@H](C)[C@H](O)[C@@H](C)[C@@H](O)[C@@H](C)[C@H](OC(C)=O)[C@@H]1C)C4=O [Rifabutin, rifabutin]
rifabutin combination MICs ([1]; in combination with SPR741, most of the strains): 0.125 to 2 mg/L | shift in rifabutin MIC ([1]; in combination with colistin, isolates with a mutation in the rpoB gene): ≥ 32 fold | MICs combi / in combination (A. baumannii IHMA690517; [3]): 1 mg/L | MICs combi (A. baumannii IHMA690517; [4]): 4 mg/L | MICs combi (A. baumannii IHMA690517; [5]): 0.06 mg/L | MIC (A. baumannii UNT087-1; Acinetobacter baumannii, UNT0871, strain UNT087-1, antibiotic alone, rifabutin/colistin checkerboard, CA-MHB, read-out: MICs alone): 16 µg/mL | MICs combi / in combination (A. baumannii UNT087-1; strain UNT087-1, rifabutin/SPR741 in combination): 0.25 mg/L | MICs combi (A. baumannii UNT087-1; strain UNT087-1, rifabutin/cefiderocol in combination): 4 mg/L | MICs combi (A. baumannii UNT087-1; strain UNT087-1, rifabutin/colistin in combination, CA-MHB): 0.5 mg/L | MIC (A. baumannii 401046-18; antibiotic alone, rifabutin/cefiderocol checkerboard, ID-CA-MHB): 32 µg/mL | MIC (A. baumannii 401046-18; [6]): 64 µg/mL | MIC (A. baumannii 401046-18; [7]): > 32 µg/mL | MICs combi / in combination (A. baumannii 401046-18; strain 401046-18, rifabutin/SPR741 in combination): 2 mg/L | MICs combi (A. baumannii 401046-18; strain 401046-18, rifabutin/cefiderocol in combination, ID-CA-MHB): 16 mg/L | MICs combi (A. baumannii 401046-18; strain 401046-18, rifabutin/colistin in combination, CA-MHB): 1 mg/L | MICs combi / in combination (A. baumannii IHMA919656; [3]): 1 mg/L | MICs combi (A. baumannii IHMA919656; [4]): 4 mg/L | MICs combi (A. baumannii IHMA919656; [5]): 0.03 mg/L | MIC (A. baumannii IHMA867231; [8]): > 128 µg/mL | MIC (A. baumannii IHMA867231; [6]): > 128 µg/mL | MIC (A. baumannii IHMA867231; [7]): > 32 µg/mL | MICs combi / in combination (A. baumannii IHMA867231; strain IHMA867231, rifabutin/SPR741 in combination): >32 mg/L | MICs combi (A. baumannii IHMA867231; strain IHMA867231, rifabutin/cefiderocol in combination): 128 mg/L | MICs combi (A. baumannii IHMA867231; strain IHMA867231, rifabutin/colistin in combination, CA-MHB): 2 mg/L | MICs combi / in combination (A. baumannii ACC00535): 0.5 mg/L | MIC (A. baumannii UNT091-1; Acinetobacter baumannii, UNT0911, strain UNT091-1, rifabutin alone, rifabutin/SPR741 checkerboard, read-out: MICs alone): 0.25 µg/mL | MICs combi / in combination (A. baumannii UNT091-1; strain UNT091-1, rifabutin/SPR741 in combination): 0.06 mg/L | MICs combi (A. baumannii UNT091-1; strain UNT091-1, rifabutin/cefiderocol in combination): 2 mg/L | MICs combi (A. baumannii UNT091-1; strain UNT091-1, rifabutin/colistin in combination, CA-MHB): <0.03 mg/L | MIC (A. baumannii 402292-17; [8]): > 128 µg/mL | MIC (A. baumannii 402292-17; [6]): > 128 µg/mL | MIC (A. baumannii 402292-17; [7]): > 32 µg/mL | MICs combi / in combination (A. baumannii 402292-17; strain 402292-17, rifabutin/SPR741 in combination): 2 mg/L | MICs combi (A. baumannii 402292-17; strain 402292-17, rifabutin/cefiderocol in combination): 128 mg/L | MICs combi (A. baumannii 402292-17; strain 402292-17, rifabutin/colistin in combination, CA-MHB): 4 mg/L | MICs alone (A. baumannii IHMA863866; [6]): 4 mg/L | MICs alone (A. baumannii IHMA863866; [7]): 4 mg/L | MICs combi / in combination (A. baumannii IHMA863866; [3]): 2 mg/L | MICs combi (A. baumannii IHMA863866; [4]): 0.125 mg/L | MICs combi (A. baumannii IHMA863866; [5]): 0.06 mg/L | MICs alone (A. baumannii UNT239-1; [6]): 4 mg/L | MICs alone (A. baumannii UNT239-1; [7]): 4 mg/L | MICs combi / in combination (A. baumannii UNT239-1; [3]): 0.25 mg/L | MICs combi (A. baumannii UNT239-1; [9]): 1 mg/L | MICs combi (A. baumannii UNT239-1; [5]): 1 mg/L | MIC (A. baumannii 402608-17; [8]): 128 µg/mL | MIC (A. baumannii 402608-17; [6]): 128 µg/mL | MIC (A. baumannii 402608-17; [7]): > 32 µg/mL | MICs combi / in combination (A. baumannii 402608-17; strain 402608-17, rifabutin/SPR741 in combination): 2 mg/L | MICs combi (A. baumannii 402608-17; strain 402608-17, rifabutin/cefiderocol in combination): 32 mg/L | MICs combi (A. baumannii 402608-17; strain 402608-17, rifabutin/colistin in combination, CA-MHB): 2 mg/L | MIC (A. baumannii 401255-18; [8]): 32 µg/mL | MIC (A. baumannii 401255-18; [6]): 128 µg/mL | MIC (A. baumannii 401255-18; [7]): > 32 µg/mL | MICs combi / in combination (A. baumannii 401255-18; strain 401255-18, rifabutin/SPR741 in combination): 2 mg/L | MICs combi (A. baumannii 401255-18; strain 401255-18, rifabutin/cefiderocol in combination): 16 mg/L | MICs combi (A. baumannii 401255-18; strain 401255-18, rifabutin/colistin in combination, CA-MHB): 2 mg/L | MICs alone (A. baumannii HUMC1; [6]): 4 mg/L | MICs alone (A. baumannii HUMC1; [7]): 4 mg/L | MICs combi / in combination (A. baumannii HUMC1; [3]): 0.25 mg/L | MICs combi (A. baumannii HUMC1; [4]): 4 mg/L | MICs combi (A. baumannii HUMC1; [5]): 0.125 mg/L | MICs combi / in combination (A. baumannii IHMA1013816; [3]): 2 mg/L | MICs combi (A. baumannii IHMA1013816; [4]): 4 mg/L | MICs combi (A. baumannii IHMA1013816; [5]): 0.125 mg/L | MIC (A. baumannii UNT191-1; Acinetobacter baumannii, UNT1911, strain UNT191-1, antibiotic alone, rifabutin/colistin checkerboard, CA-MHB, read-out: MICs alone): 16 µg/mL | MICs combi / in combination (A. baumannii UNT191-1; strain UNT191-1, rifabutin/SPR741 in combination): 0.5 mg/L | MICs combi (A. baumannii UNT191-1; strain UNT191-1, rifabutin/cefiderocol in combination, ID-CA-MHB): 0.5 mg/L | MICs combi (A. baumannii UNT191-1; strain UNT191-1, rifabutin/colistin in combination, CA-MHB): <0.03 mg/L | MICs combi / in combination (A. baumannii UNT238-1; [3]): 0.125 mg/L | MICs combi (A. baumannii UNT238-1; [9]): 4 mg/L | MICs combi (A. baumannii UNT238-1; [5]): 2 mg/L | MICs alone [2, 6]: 4 mg/L | MICs alone [2, 7]: 4 mg/L | MICs combi / in combination [2, 3]: 0.06 mg/L | MICs combi [2, 9]: 1 mg/L | MICs combi [2, 5]: 0.016 mg/L
